US20210107874A1, “PHARMACEUTICAL FORMULATION OF CROTONYLAMINOPYRIDINE SALT” (priority 2017, published 2021)
Where two headings read alike, the source gives them in different places.

Columns and labels:
[1] = PK studies of formulations, plasma by HPLC-MS/MS; type: in vivo; conditions: bovine, plasma, 1.25 mg/kg, Cattle, 1.25 mg/kg; for Tmax: read-out: Tmax; for AUC: read-out: AUC; for Cmax: read-out: Cmax
Protocol: The following formulations were prepared and administered to animals. Blood samples were collected at pre-defined time points and the amount of compound present in plasma at the time of sampling was determined by HPLC-MS/MS. Pharmacokinetic parameters were then calculated: Cmax, Tmax, Tlast, AUC. [table]

[2] = Stability tests of solutions of compound 4 with equimolar acids in water; type: physicochemical; conditions: for solubility: water with equimolar acid, thermodynamic from solid
Protocol: Equimolar amounts of compound 4 and acids were diluted with water: Water was added until all residues were dissolved. 200, 100 and 50 mg of compound 4 was used, each amount was combined with each acid of the following list. The solutions were equilibrated at room temperature and then held for 7 days at room temperature and thereafter 7 days at 8° C.

[3] = Solubility of salts of compound 4: compound added in portions to acid in water until no clear solution; type: physicochemical; conditions: for Dissolved g of 4 / pH: clear solution
Protocol: A defined amount of an acid (1.0 g) was weighed into a flask and dissolved in water (10 ml). […] The pH value was measured after each addition.
Thus 8 g of compound 4 in 10 ml of water can be dissolved.

[4] = Solubility of synthesized tartrate salt and free base of compound 4; type: physicochemical; conditions: free base; read-out: solubility
Protocol: The free base of compound 4 has a solubility of 0.8 mg/ml

[5] = sc, FormL50 (DMA, propylene glycol, water)
[6] = sc, FormP62.5 (L-tartaric acid, 2-pyrrolidone, NaOH, water)
[7] = sc, pH 4.3, FormQ62.5 (L-tartaric acid, sodium carboxymethyl cellulose, NaOH up to pH 4.3, water)
[8] = sc, pH 4.4, Form O62.5 (FormO type: L-tartaric acid, NaOH to pH 4.4, water)
[9] = sc, pH 4.6, FormM62.5 (L-tartaric acid, sodium hydroxide up to pH 4.6, water)
[10] = FormJ62.5 (DMSO, 2-pyrrolidone, ethyl lactate), SC
[11] = 0.5 g Acetic acid in 10 ml water
[12] = 1.0 g Citric acid in 10 ml water
[13] = 1.0 g Tartaric acid in 10 ml water

Compound: CCOc1cc(NCCNC(=O)/C=C/C(F)(F)F)ccn1 [Compound 4, (E)-N-[2-[(2-ethoxy-4-pyridyl)amino]ethyl]-4,4,4-trifluoro-but-2-enamide]
- Tmax ([1]; sc, FormK62.5 (2-pyrrolidone, Transcutol P, ethyl lactate)): 49.8 min
- AUC [1, 5]: 59.8 ng·h/mL
- Cmax [1, 5]: 28.1 ng/mL
- Tmax [1, 5]: 40.2 min
- AUC [1, 6]: 322 ng·h/mL
- Cmax [1, 6]: 94.2 ng/mL
- Tmax [1, 6]: 49.8 min
- AUC [1, 7]: 356 ng·h/mL
- Cmax [1, 7]: 297 ng/mL
- Tmax [1, 7]: 34.8 min
- AUC [1, 8]: 358 ng·h/mL
- Cmax [1, 8]: 300 ng/mL
- Tmax [1, 8]: 30 min
- AUC [1, 9]: 336 ng·h/mL
- Cmax [1, 9]: 350 ng/mL
- Tmax [1, 9]: 15 min
- AUC [1, 10]: 99.6 ng·h/mL
- Cmax [1, 10]: 37.1 ng/mL
- Tmax [1, 10]: 110 min
- pH ([2]; equimolar Citric acid in water): 3.41
- pH ([2]; equimolar D-glucoronic acid in water): 4.15
- pH ([2]; equimolar Ethanesulfonic acid in water): 1.23
- pH ([2]; equimolar Fumaric acid in water): 3.74
- pH ([2]; equimolar Hydrochloric acid in water): 1.15
- pH ([2]; equimolar L-lactic acid in water): 4.28
- pH ([2]; equimolar Methanesulfonic acid in water): 1.28
- pH ([2]; equimolar Oxalic acid in water): 2.14
- pH ([2]; equimolar Sulfuric acid in water): 0.06
- pH ([2]; equimolar Tartaric acid in water): 3.35
- solubility ([2]; pH 0.06, water, equimolar Sulfuric acid in water): > 200 mg/mL
- solubility ([2]; pH 1.15, water, equimolar Hydrochloric acid in water): > 200 mg/mL
- solubility ([2]; pH 1.23, water, equimolar Ethanesulfonic acid in water): > 200 mg/mL
- solubility ([2]; pH 1.28, water, equimolar Methanesulfonic acid in water): > 200 mg/mL
- solubility ([2]; pH 2.14, water, equimolar Oxalic acid in water): > 200 mg/mL
- solubility ([2]; water, equimolar Citric acid in water): > 200 mg/mL
- solubility ([2]; water, equimolar D-glucoronic acid in water): > 100 mg/mL
- solubility ([2]; water, equimolar Fumaric acid in water): > 200 mg/mL
- solubility ([2]; water, equimolar L-lactic acid in water): > 100 mg/mL
- solubility ([2]; water, equimolar Phosphoric acid in water): > 100 mg/mL
- solubility ([2]; water, equimolar Tartaric acid in water): > 200 mg/mL
- solubility ([2]; water, equimolar acetic acid in water): < 50 mg/mL
- solubility ([2]; water, equimolar benzenesulfonic acid in water): < 50 mg/mL
- solubility ([2]; water, equimolar benzoic acid in water): < 50 mg/mL
- solubility ([2]; water, equimolar ethanedisulfonic acid in water): < 50 mg/mL
- solubility ([2]; water, equimolar isethionic acid in water): > 200 mg/mL
- solubility ([2]; water, equimolar maleic acid in water): < 50 mg/mL
- solubility ([2]; water, equimolar malonic acid in water): < 50 mg/mL
- solubility ([2]; water, equimolar p-toluenesulfonic acid in water): < 50 mg/mL
- solubility ([2]; water, equimolar saccharin in water): < 50 mg/mL
- solubility ([2]; water, equimolar succinic acid in water): < 50 mg/mL
- Dissolved g of 4 [3, 11]: 1 g
- pH [3, 11]: 4.6
- Dissolved g of 4 [3, 12]: 2.5 g
- pH [3, 12]: 4.4
- Dissolved g of 4 ([3]; 1.0 g Maleic acid in 10 ml water): <0.1 g
- Dissolved g of 4 [3, 13]: 3.5 g
- pH [3, 13]: 4.2
- appearance of solution ([3]; 2 g compound 4 and 1 g tartaric acid in 2.5 ml water): clear solution
- amount that can be dissolved in 10 ml of water ([3]; with tartaric acid, scaled from 2 g in 2.5 ml): 8 g
- solubility [4]: 0.8 mg/mL
